The target of experiment [1] is Cannabinoid receptor 1 (Homo sapiens, UniProt P21554). The class given is cell membranes, Membrane. The following applies: chem-1. Also: in other assays of this panel Not Active means under 50% inhibition at 10 µM.
In experiment [2] the target is T1, Muscarinic acetylcholine receptor M2 (Homo sapiens, UniProt P08172). Also: in other assays of this panel Not Active means under 50% inhibition at 10 µM.
T1 sequence (P08172 whole entry): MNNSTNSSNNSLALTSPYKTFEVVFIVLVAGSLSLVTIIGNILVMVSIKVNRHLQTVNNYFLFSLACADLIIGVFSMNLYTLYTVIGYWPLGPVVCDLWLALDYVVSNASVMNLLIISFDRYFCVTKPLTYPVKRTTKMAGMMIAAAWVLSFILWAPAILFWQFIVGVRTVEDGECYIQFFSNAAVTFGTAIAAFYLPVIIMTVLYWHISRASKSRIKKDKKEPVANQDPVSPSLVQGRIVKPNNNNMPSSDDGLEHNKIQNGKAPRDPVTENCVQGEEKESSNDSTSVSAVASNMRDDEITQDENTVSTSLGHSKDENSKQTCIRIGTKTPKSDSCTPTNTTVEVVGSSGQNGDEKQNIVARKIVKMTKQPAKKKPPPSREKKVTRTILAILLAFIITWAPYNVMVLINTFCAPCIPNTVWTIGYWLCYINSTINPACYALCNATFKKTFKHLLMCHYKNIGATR
Format: cell membranes, CHO-K1, Membrane. The following applies: cho-k1.

Experiment [3] is described as follows: DRUGMATRIX: ATPase, Na+/K+ enzyme inhibition (substrate: ATP). The following applies: Not Active = under 50% inhibition at 10 µM. Format: tissue-based, Sus scrofa, Heart.
The target in experiment [4] is T2, Substance-K receptor (Homo sapiens, UniProt P21452). Also: in other assays of this panel Not Active means under 50% inhibition at 10 µM.
T2 sequence (P21452 whole entry): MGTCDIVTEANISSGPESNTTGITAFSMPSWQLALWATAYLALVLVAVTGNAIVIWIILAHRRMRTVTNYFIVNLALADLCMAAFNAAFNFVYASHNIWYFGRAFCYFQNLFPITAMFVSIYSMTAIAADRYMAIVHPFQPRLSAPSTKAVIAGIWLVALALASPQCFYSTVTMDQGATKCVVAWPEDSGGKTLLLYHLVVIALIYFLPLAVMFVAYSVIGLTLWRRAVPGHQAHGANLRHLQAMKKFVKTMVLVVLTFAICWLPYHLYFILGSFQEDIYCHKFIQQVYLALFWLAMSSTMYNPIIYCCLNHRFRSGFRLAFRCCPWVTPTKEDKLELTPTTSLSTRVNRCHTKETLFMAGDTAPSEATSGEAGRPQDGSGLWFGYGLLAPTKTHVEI
Format: cell membranes, CHO, Membrane. The following applies: cho.

The target of experiment [5] is Protein phosphatase 3 catalytic subunit alpha (Homo sapiens, UniProt Q08209). Set-up: species or system Escherichia coli.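 Also: inhibition of calcineurin (PP2B) enzyme activity, measured with DiFMUP as the substrate; in other assays of this panel Not Active means under 50% inhibition at 10 µM.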
For experiment [6], the target named is T3, Vasoactive intestinal polypeptide receptor 1 (Homo sapiens, UniProt P32241). Also: in other assays of this panel Not Active means under 50% inhibition at 10 µM.
T3 sequence (P32241 whole entry): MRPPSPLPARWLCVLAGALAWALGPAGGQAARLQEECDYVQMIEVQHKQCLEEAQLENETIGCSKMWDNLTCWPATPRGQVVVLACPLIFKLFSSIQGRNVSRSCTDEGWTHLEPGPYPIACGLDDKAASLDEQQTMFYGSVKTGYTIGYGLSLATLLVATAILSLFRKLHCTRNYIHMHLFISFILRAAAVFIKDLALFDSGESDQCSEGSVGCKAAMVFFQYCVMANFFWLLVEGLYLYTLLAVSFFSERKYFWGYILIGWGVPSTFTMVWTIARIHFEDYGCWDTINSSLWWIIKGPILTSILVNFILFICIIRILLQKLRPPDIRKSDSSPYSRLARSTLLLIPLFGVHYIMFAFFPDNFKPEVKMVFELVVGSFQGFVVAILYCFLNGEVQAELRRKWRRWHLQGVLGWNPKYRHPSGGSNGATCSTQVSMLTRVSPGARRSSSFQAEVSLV
Format: cell membranes, Membrane. The following applies: ht-29.

A short description of experiment [7]: DRUGMATRIX: GABAA, Muscimol, Central radioligand binding (ligand: [3H] Muscimol). The class given is cell membranes, Rattus norvegicus, Wistar, Brain, Membrane. The following applies: Not Active = under 50% inhibition at 10 µM.
Experiment [8] addresses Melanocortin receptor 4 (Homo sapiens, UniProt P32245). The class given is cell membranes, Membrane. The following applies: hek293.
For experiment [9], the target named is 5-hydroxytryptamine receptor 1B (Rattus norvegicus, UniProt P28564). The class given is cell membranes, Wistar, Cerebral cortex, Membrane. Also: in other assays of this panel Not Active means under 50% inhibition at 10 µM.
Sequence of 5-hydroxytryptamine receptor 1B (P28564 whole entry): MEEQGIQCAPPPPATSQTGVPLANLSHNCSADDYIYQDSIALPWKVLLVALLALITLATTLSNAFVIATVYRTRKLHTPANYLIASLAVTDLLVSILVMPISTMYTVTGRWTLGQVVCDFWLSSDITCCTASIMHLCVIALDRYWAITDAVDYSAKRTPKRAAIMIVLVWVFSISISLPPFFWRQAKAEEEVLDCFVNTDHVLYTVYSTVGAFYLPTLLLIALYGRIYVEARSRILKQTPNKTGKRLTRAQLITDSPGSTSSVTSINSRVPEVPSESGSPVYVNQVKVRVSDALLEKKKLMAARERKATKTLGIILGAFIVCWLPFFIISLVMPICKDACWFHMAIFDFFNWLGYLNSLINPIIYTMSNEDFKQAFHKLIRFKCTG
In experiment [10] the target is Melanocortin receptor 5 (Homo sapiens, UniProt P33032). Format: cell membranes, HEK293, Membrane. The following applies: hek293. Also: in other assays of this panel Not Active means under 50% inhibition at 10 µM.
Sequence of Melanocortin receptor 5 (P33032 whole entry): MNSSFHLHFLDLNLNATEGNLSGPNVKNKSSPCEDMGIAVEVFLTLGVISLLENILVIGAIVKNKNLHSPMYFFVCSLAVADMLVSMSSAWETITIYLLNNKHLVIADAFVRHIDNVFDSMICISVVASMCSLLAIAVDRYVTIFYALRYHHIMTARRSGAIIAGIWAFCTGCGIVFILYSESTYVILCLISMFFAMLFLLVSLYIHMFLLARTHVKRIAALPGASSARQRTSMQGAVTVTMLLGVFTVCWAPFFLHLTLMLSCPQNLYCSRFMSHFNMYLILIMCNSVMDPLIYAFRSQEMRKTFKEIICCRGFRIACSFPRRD
For experiment [11], the target named is Protein kinase C alpha type (Homo sapiens, UniProt P17252). Format: cell-based. The following applies: sf9.
The nature of experiment [12]: DRUGMATRIX: Tumor Necrosis Factor (TNF), Non-Selective radioligand binding (ligand: [125I] TNF-alpha). The class given is cell membranes, Membrane. The following applies: u-937; Not Active = under 50% inhibition at 10 µM.
Experiment [13] addresses Aldo-keto reductase family 1 member B1 (Rattus norvegicus, UniProt P07943). Format: tissue-based, Lens of camera-type eye.
A short description of experiment [14]: DRUGMATRIX: Potassium Channel [KATP] radioligand binding (ligand: [3H] Glyburide). Format: cell membranes, Membrane. The following applies: hit-t15; Not Active = under 50% inhibition at 10 µM.
The nature of experiment [15]: DRUGMATRIX: Phorbol Ester radioligand binding (ligand: [3H] PDBu). The class given is cell membranes, Mus musculus, ICR, Brain, Membrane. The following applies: Not Active = under 50% inhibition at 10 µM.
A short description of experiment [16]: DRUGMATRIX: Glutamate, Kainate radioligand binding (ligand: [3H] Kainic acid). The following applies: Not Active = under 50% inhibition at 10 µM. The class given is cell membranes, Rattus norvegicus, Wistar, Brain, Membrane.
Experiment [17] addresses T4, Neuropeptide Y receptor type 2 (Homo sapiens, UniProt P49146).
T4 sequence (P49146 whole entry): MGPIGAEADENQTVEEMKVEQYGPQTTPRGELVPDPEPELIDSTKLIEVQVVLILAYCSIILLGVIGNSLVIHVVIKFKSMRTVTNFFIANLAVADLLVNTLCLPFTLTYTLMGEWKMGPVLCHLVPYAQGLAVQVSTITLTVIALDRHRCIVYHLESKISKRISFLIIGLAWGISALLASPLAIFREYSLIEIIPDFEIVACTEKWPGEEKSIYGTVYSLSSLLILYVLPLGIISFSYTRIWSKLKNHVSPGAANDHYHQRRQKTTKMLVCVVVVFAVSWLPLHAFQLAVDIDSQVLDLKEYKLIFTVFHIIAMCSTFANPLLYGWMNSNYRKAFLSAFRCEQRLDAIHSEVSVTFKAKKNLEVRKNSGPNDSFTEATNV
The class given is cell membranes, Membrane. The following applies: kan-ts.

Broadly, the IC50 is the midpoint of a concentration-inhibition curve. A word on the Ki: it is a dissociation constant, usually derived from enzyme kinetics or from competition with a known ligand.

Sequence of Melanocortin receptor 4 (P32245 whole entry): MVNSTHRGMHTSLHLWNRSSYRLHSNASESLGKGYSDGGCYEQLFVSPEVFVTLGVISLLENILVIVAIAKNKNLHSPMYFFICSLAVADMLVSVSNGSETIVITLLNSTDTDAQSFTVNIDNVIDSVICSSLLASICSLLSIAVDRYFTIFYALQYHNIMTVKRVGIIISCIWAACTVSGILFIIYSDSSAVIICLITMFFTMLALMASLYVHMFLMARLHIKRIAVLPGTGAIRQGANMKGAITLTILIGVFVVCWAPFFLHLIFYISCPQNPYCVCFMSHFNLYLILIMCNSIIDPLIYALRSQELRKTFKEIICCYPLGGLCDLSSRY
Sequence of Cannabinoid receptor 1 (P21554 whole entry): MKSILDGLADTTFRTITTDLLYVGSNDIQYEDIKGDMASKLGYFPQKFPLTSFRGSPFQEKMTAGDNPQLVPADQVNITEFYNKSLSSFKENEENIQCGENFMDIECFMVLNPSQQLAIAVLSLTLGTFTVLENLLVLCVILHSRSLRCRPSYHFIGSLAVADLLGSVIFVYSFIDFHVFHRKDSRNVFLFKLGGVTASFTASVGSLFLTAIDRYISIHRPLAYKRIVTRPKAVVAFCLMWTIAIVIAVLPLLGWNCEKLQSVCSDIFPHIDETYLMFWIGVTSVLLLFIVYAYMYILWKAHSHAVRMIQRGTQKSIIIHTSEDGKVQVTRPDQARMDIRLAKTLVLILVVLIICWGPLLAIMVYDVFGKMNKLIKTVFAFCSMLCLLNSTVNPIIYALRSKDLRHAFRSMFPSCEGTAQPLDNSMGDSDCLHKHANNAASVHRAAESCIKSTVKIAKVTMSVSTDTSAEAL

With `Cc1ccc(C(=O)C(C)CN2CCCCC2)cc1` (stereo not given) [TOLPERISONE], the IC50 result in experiment [1], in experiment [2], in experiment [3], in experiment [4], in experiment [5] and in [6] was “Not Active” in each case. The IC50 entry in [7], in experiment [8], in [9], in [10], in [11] and in experiment [12] was “Not Active” each time. The IC50 result in experiment [13], in experiment [14], in [15], in experiment [16] and in experiment [17] was “Not Active” throughout. Also, the Ki entry in experiment [3], in experiment [7], in [12], in [14], in experiment [15] and in [16] was “Not Active” in each case.

Turning to `NC(CO)(CO)CO` [TROMETHAMINE], the IC50 entry in [1], in [2], in [3], in experiment [4], in experiment [5] and in [6] was “Not Active” each time. Further, the IC50 result in experiment [7], in experiment [8], in experiment [9], in [10], in experiment [11] and in [12] was “Not Active” each time. The IC50 entry in experiment [13], in experiment [14], in experiment [15], in [16] and in [17] was “Not Active” throughout. Moreover, the Ki result in experiment [3], in experiment [7], in [12], in [14], in experiment [15] and in [16] was “Not Active” each time.

Consider `CN1[C@@H]2CC[C@H]1C[C@@H](OC(=O)c1c[nH]c3ccccc13)C2` [TROPISETRON], for which the IC50 result in experiment [1], in experiment [2], in experiment [3], in experiment [4], in experiment [5] and in experiment [6] was “Not Active” throughout. The IC50 in experiment [7] (read-out: IC50) was 3020 nM; in experiment [8], “Not Active”; in experiment [9] it was “Not Active”; in experiment [10] it was “Not Active”; in [11] it was “Not Active”; in experiment [12], “Not Active”. Also, the IC50 entry in experiment [13], in [14], in [15], in [16] and in experiment [17] was “Not Active” throughout. Further, the inhibition constant (Ki) entry in experiment [3] was “Not Active”; in experiment [7] (read-out: Ki) it was 2400 nM; in experiment [12], “Not Active”; in experiment [14], “Not Active”; in experiment [15], “Not Active”; in experiment [16], “Not Active”.

Regarding `COc1cc(C(=O)NC2CCCNC2)cc(OC)c1OC` (stereo not given) [TROXIPIDE], the half-maximal inhibitory concentration (IC50) result in experiment [1], in experiment [2], in experiment [3], in [4], in [5] and in experiment [6] was “Not Active” each time. Further, the IC50 result in experiment [7], in experiment [8], in experiment [9], in experiment [10], in experiment [11] and in experiment [12] was “Not Active” in each case. Further, the IC50 entry in experiment [13], in [14], in experiment [15], in experiment [16] and in experiment [17] was “Not Active” in each case. The Ki entry in experiment [3], in experiment [7], in [12], in experiment [14], in [15] and in [16] was “Not Active” in each case.

Take `CC(C)[C@H](N)C(=O)OCCOCn1cnc2c(=O)nc(N)[nH]c21` [VALACYCLOVIR]: the IC50 entry in experiment [1], in [2], in experiment [3], in [4], in experiment [5] and in [6] was “Not Active” in each case. For the same compound, the IC50 result in experiment [7], in [8], in experiment [9], in experiment [10], in [11] and in experiment [12] was “Not Active” throughout. Also, the IC50 result in experiment [13], in experiment [14], in [15], in experiment [16] and in [17] was “Not Active” throughout. Moreover, the Ki result in [3], in [7], in experiment [12], in [14], in experiment [15] and in experiment [16] was “Not Active” throughout.

The values are drawn from ChEMBL document CHEMBL1909046, “DrugMatrix in vitro pharmacology data”.
